For data set [1], the target named is T1, PAR4 (Homo sapiens, UniProt Q96RI0).
T1 construct: endogenous in cells; host or cells: platelets
T1 sequence (Q96RI0 18-385): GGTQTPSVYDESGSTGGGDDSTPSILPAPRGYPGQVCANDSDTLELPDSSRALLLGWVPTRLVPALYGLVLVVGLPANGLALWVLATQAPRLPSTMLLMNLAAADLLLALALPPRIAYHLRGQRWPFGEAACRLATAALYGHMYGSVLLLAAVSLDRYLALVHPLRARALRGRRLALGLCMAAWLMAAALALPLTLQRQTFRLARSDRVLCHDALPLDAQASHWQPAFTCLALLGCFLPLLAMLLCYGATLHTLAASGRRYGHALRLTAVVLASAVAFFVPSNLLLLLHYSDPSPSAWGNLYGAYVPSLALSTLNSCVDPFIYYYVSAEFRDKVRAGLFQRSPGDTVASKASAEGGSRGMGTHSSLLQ
Briefly: Platelet activation induced through PAR4. The following applies: FIG. 1A. In kind it is cell-based. The method, then:
To confirm the specificity of compound 1 for PAR1, platelets were incubated with compound 1 and subsequently activated with a variety of platelet agonists. P-selectin surface expression was monitored to detect platelet activation. […] In contrast, an IC50 for inhibition of other agonists was not reached even at concentrations >30-fold its IC50 for PAR1-mediated secretion. To further evaluate whether PAR1 is the target of compound 1, we tested the ability of the compound to inhibit Ca^2+ flux in HEK293 cells overexpressing recombinant PAR1.

Data set [2] concerns Gα12 signaling downstream of PAR1. Briefly: PAR1-mediated transmembrane resistance (TER) in MDCK cells overexpressing Gα12. In kind it is cell-based. The following applies: FIG. 3B. The text has this: (§1) This pattern of inhibition is consistent with that of an allosteric inhibitor. […] This observation raised the possibility that compound 1 blocks PAR1 signaling through Gαq (which mediates platelet aggregation downstream of PAR1), but not Gα12/13 (which mediates shape change downstream of PAR1). A previously identified PAR1 inhibitor, 3,5-difluoro aminoisoxazole (3,5-DFAI), inhibited both shape change and aggregation. Shape change that occurred in the presence of compound 1 was blocked by the Rho kinase inhibitor Y27632, confirming participation of Rho kinase downstream of Gα12/13 in compound-1-resistance shape change (FIG. 3A). […] PAR1-mediated decrease in TER in these cells is dependent on Gα12. […] In contrast, 3,5-DFAI inhibited SFLLRN-mediated decrease in TER (FIG. 3B) and compound 1 inhibited Gαq-mediated Ca^2+ flux in these MDCK cells (FIG. 3C).

Data set [3] has as its system thrombus formation. Briefly: Thrombus formation following laser-induced injury of the cremaster arteriole in mice. In kind it is in vivo. An excerpt:
PAR1 is the thrombin receptor on human platelets and serves an important function in mediating thrombus formation. We tested compound 1 to determine whether it inhibited thrombus formation following laser-induced injury of the cremaster arteriole in mice. The dominant PAR receptor on mouse platelets is PAR4. However, since compound 1 acts at a non-orthosteric site and mouse PAR4 differs from human PAR4, we reasoned that compound 1 may be able to block mouse PAR4. […] When infused into mice at a concentration of 5 mg/kg, compound 1 inhibited platelet accumulation during thrombus formation by >90% (FIG. 4B). Infusion of 5 mg/kg also impaired fibrin generation during thrombus formation (FIG. 4C). Thus, compound 1 blocks both cellular- and coagulation protein-mediated arms of thrombus formation. […] The compound was therefore infused every 30 minutes during the course of these experiments. The short half-life of compound 1 in vivo may be useful in scenarios in which anticoagulation is only required for a short period of time or when anticoagulation needs to be reversed quickly, such as anticoagulation prior to invasive procedures or surgery.
(§2) Since there are also situations in which longer term anticoagulation is desired, we performed further studies in the thrombus formation model to assess analogs of compound 1 that may have a more long-lived effect. […] This instability in mouse plasma may have contributed to its short half-life of efficacy in vivo.

Data set [4] can be described thus: Stability in mouse plasma. In kind it is in vitro ADME.
Text: as §2

A short description of data set [5]: Stability in human plasma. In kind it is in vitro ADME.
Text: as §2

Data set [6] deals with T2, PAR1 (Homo sapiens, UniProt P25116).
T2 sequence (P25116 22-425): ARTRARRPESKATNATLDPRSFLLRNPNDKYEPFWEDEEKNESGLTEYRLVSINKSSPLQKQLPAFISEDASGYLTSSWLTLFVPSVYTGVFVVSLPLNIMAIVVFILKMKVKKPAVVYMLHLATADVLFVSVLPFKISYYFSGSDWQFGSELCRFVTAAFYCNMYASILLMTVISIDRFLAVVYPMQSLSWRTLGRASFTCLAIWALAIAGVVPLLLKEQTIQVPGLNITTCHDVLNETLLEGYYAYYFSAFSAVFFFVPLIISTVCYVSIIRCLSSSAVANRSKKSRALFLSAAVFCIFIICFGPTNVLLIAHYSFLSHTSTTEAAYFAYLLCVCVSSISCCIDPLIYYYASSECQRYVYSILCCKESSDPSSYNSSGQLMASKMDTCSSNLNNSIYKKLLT
Briefly: PAR1-mediated platelet aggregation and shape change. In kind it is cell-based. Also noted: endogenous in cells; host or cells: platelets (platelet-rich plasma; washed platelets from individual donors). The following applies: FIG. 3A.
Text: as §1

Experimental findings from US9422262B2, “Compounds and methods for treating diseases mediated by protease activated receptors” (The Broad Institute, Inc., priority 2010, dated 2016) are described below.

In the case of `CCCC(=O)Nc1cccc(NC(=O)c2ccccc2Br)c1` [Compound 1], the “platelet activation through PAR4” value in data set [1] is given as “without inhibiting”. The “PAR1-mediated (SFLLRN) change in TER” value in data set [2] is reported as “failed to inhibit”. Also, the “inhibition of platelet accumulation during thrombus formation” value in data set [3] (5 mg/kg infused every 30 minutes, FIG. 4B) was over 90%. In addition, the “fibrin generation during thrombus formation” value in data set [3] (infusion of 5 mg/kg, FIG. 4C) was “impaired”. Further, the “remaining after 5 hour incubation in mouse plasma” value in data set [4] turned out to be 1.7%. Further, the “stability in human plasma” value in data set [5] is recorded as “good stability”. Moreover, in data set [6], the PAR1-mediated platelet aggregation entry is “inhibited” and the “PAR1-mediated platelet shape change” value is “failed to inhibit”.
